# “Also recorded” adds a separate entry of the source. Residues, ends and D or L forms follow the SMILES beside them. *: point of attachment. Cbz = O=C(OCc1ccccc1)*
# Experiments:
# [1] = molecular target: T1, survivin in PC3 cells (Homo sapiens, UniProt O15392); assay: Proteasome inhibitor reversal of compound-induced survivin degradation; type: cell-based; conditions: for effect of proteasome inhibitor on LQZ-7F-induced survivin degradation: co-treatment with LQZ-7F
# T1 construct: endogenous in cells; host or cells: PC-3 cells
# T1 sequence (O15392 whole entry): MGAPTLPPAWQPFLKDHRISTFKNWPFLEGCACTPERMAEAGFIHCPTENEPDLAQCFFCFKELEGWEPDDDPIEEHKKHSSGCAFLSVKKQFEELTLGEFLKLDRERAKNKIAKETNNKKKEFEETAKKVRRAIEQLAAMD
# [2] = molecular target: purified survivin (Homo sapiens, UniProt O15392); assay: Pull-down assay with sepharose-immobilized compound; type: binding; conditions: CNBr-activated sepharose, vs control beads
# Chain of purified survivin (O15392 whole entry): as above
# Description: LQZ-7F was immobilized onto CNBr-activated Sepharose and used to pull down recombinant survivin, followed by separation on SDS-PAGE and silver staining.
# To investigate if LQZ-7F indeed binds to survivin, we took advantage of the primary amine group and immobilized LQZ-7F onto CNBr-activated sepharose for a pull-down assay using purified survivin.
# [3] = test system: PC-3 xenograft tumors; assay: PC-3 xenograft mouse model efficacy; type: in vivo, NOD/SCID mice
# Description: We next determined if LQZ-7F is active in suppressing tumor growth in vivo using xenograft animal model. For this purpose, NOD/SCID mice were first implanted subcutaneously with PC-3 cells to establish xenograft tumors. PC-3 cell was chosen because it has highest IC50 (FIG. 6). When the xenograft tumor reached the size of ˜100 mm^3, the mice were randomized into two groups and treated with 25 mg/kg LQZ-7F or vehicle control via IP injection once every three days for total of 8 treatments. The growth of the xenograft tumors were measured using a caliper and body weight was monitored every three days for a total of 30 days. […] In fact, the body weight of the control group dropped slightly possibly due to disease burden of xenograft tumors. This symptom appears to be alleviated by LQZ-7F treatment, consistent with smaller tumor size in the treatment group.
# For efficacy study, 3×10^6 PC-3 cells were injected subcutaneously in the flanks of 10 NOD/SCID mice. When the tumor volume reached about 100 mm^3, the mice were randomized into two different groups (5/group) with one group treated by vehicle control and the other by LQZ-7F at 25 mg/kg via IP injection once every three days for total of 8 treatments. Tumor volume and body weight were measured […]. On the 30th day after the initial treatment, mice were euthanized and the tumor tissues were harvested, weighed, and subjected to hematoxylin and eosin (H&E) staining as well as Western blot and immunohistochemistry analysis of survivin.
# [4] = molecular target: T2, ectopic Flag-tagged survivin in HEK293 cells (Homo sapiens, UniProt O15392); assay: Western blot of ectopic tagged survivin in HEK293; type: cell-based
# T2 construct: expressed in transfected cells; host or cells: HEK293 cells, CMV promoter
# T2 sequence (O15392 whole entry): as above
# [5] = molecular target: T3, survivin in DU145 and PC-3 cells (Homo sapiens, UniProt O15392); assay: Survivin half-life determination (cycloheximide chase); type: cell-based; conditions: PC-3, cycloheximide pre-treated, 5 μM LQZ-7F
# T3 construct: endogenous in cells; host or cells: DU145 and PC-3 cells
# T3 sequence (O15392 whole entry): as above
# Description: PC-3 cells were pre-treated with cycloheximide (CHX) to inhibit protein synthesis followed by chasing for different times in the presence of LQZ-7F or DMSO control and Western blot analysis of remaining survivin.
# The effect of survivin inhibitor on the half-life of survivin was determined as previously described^51. […] The cells were then harvested for Western blot analysis of survivin.
# [6] = test system: DU145 cells; assay: MTT cell survival assay, DU145; type: cell-based, human; conditions: compared with LQZ-7
# Description: (§1) Human prostate cancer cell lines DU145 (top) and PC3 cells (bottom) were cultured in the presence of vehicle DMSO or 20 μM compounds off in-silico screening for 3 days followed by MTT assay. Cells survived in the presence of various compounds were normalized to that treated by DMSO vehicle. Arrows indicate compounds that inhibited >50% in cell survival. (*p<0.05; **p<0.01).
# (§2) These assays were performed as previously described^49,50. Briefly, MTT assay were performed by seeding 2500 cells in 96-well plate and cultured 24 hours before addition of survivin inhibitors at different concentrations and continuous culture for 3 days. The cells were then subjected to MTT assay. For colony formation assay, 100 cells/well were seeded in 6-well plates and cultured for 24 hours before addition of survivin inhibitors or DMSO vehicle. The cells were continuously cultured in the presence of survivin inhibitors or DMSO for 10-14 days followed by staining with crystal violet and counting manually.
# [7] = test system: multiple human cancer cell lines (acute myeloid leukemia, breast, colon, lung, pancreas, prostate, ovary); assay: MTT assay, multiple human cancer cell lines; type: cell-based; conditions: range over all cell lines tested, read-out: IC50 for survival of cancer cell lines
# Description: Toward this goal, we tested the effect of LQZ-7F on survival of multiple human cancer cell lines representing acute myeloid leukemia and cancers of breast, colon, lung, pancreas, prostate, and ovary using MTT assay.
# as §2
# [8] = test system: PC-3 cells; assay: Microtubule structure by α-tubulin immunostaining; type: cell-based, human; conditions: PC-3, 2 μM, 24 hours
# Description: PC3 cells were treated without or with 2 μM LQZ-7F for 24 hours followed by immunostaining of α-tubulin and counter-stained with DAPI. The images were captured using confocal microscopy.
# [9] = molecular target: T1, survivin in PC3 cells; assay: Western blot of endogenous survivin, PC3; type: cell-based; conditions: vs vehicle
# [10] = test system: PC3 cells; assay: Colony formation assay, PC3; type: cell-based, human; set-up: unit of the concentration uncertain; conditions: control approximately 62%
# Description: as §2
# [11] = molecular target: T4, survivin in DU145 cells (Homo sapiens, UniProt O15392); assay: Western blot of endogenous survivin, DU145; type: cell-based; conditions: vs vehicle
# T4 construct: endogenous in cells; host or cells: DU145
# T4 sequence (O15392 whole entry): as above
# [12] = test system: A549 cells; assay: Colony formation assay, A549; type: cell-based, human; conditions: control 45%
# Description: as §2
# [13] = test system: PC-3 cells; assay: MTT cell survival assay, PC-3; type: cell-based, human; conditions: PC3, MTT, compared with LQZ-7
# Description: as §1, §2
# [14] = molecular target: survivin and its partner Ran protein (Homo sapiens, UniProt O15392); conditions: cited from earlier work
# Chain of survivin and its partner Ran protein (O15392 whole entry): as above
# [15] = test system: cancer cells; conditions: read-out: IC50 for proliferation of cancer cells; cited from earlier work
# [16] = molecular target: survivin (Homo sapiens, UniProt O15392); conditions: cited from earlier work
# Chain of survivin (O15392 whole entry): as above
# [17] = test system: survivin mRNA in DU145 cells; assay: Real-time RT-PCR of survivin mRNA; type: cell-based, human; conditions: DU145, 48 hrs
# [18] = molecular target: T5, 14-3-3σ (Homo sapiens, UniProt P31947); assay: Non-denaturing PAGE of 14-3-3σ dimerization; type: biochemical; conditions: 100 μM
# T5 sequence (P31947 1-248): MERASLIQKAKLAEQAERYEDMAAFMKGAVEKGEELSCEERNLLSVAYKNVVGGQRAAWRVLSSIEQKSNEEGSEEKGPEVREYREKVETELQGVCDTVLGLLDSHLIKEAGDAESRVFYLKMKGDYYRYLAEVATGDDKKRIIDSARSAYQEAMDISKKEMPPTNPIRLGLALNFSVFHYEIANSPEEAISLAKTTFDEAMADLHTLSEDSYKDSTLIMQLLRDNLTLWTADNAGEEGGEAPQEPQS
# Description: After centrifugation at 11,000×g for 10 minutes, the supernatants were separated by electrophoresis on 15% Tris/glycine polyacrylamide gel followed by transfer to PVDF membrane for western blot analysis as previously described^48.
# [19] = test system: human cancers; conditions: several phase II trials; cited from earlier work
structure (smiles),measurement,setting,value
CC(C)C[C@@H](C=O)NC(=O)[C@H](CC(C)C)NC(=O)[C@H](CC(C)C)NC(=O)OCc1ccccc1 [MG132] (Cbz-Leu-Leu-Leu-aldehyde),effect of proteasome inhibitor on LQZ-7-induced survivin loss,"[1]; co-treatment with LQZ-7, PC-3",reversed
same,effect of proteasome inhibitor on LQZ-7F-induced survivin degradation,[1],able to rescue
Nc1nonc1C(=O)N/N=C1\c2ccccc2-c2nc3nonc3nc21 [LQZ-7F],pull-down of survivin by immobilized compound,[2],successfully pulled down
same,body weight of mice,"[3]; 25 mg/kg IP once every three days, 8 treatments",remained constant
same,growth of xenograft tumors,"[3]; 25 mg/kg IP once every three days, 8 treatments, vs vehicle",significantly inhibited
same,average weight of final tumors,"[3]; 25 mg/kg IP, day 30, vs control group",significantly less
same,apoptotic cells in tumors,"[3]; 25 mg/kg IP, vs control-treated tumors",more apoptotic cells
same,survivin in xenograft tumors,"[3]; Western blot and IHC, vs control-treated group",dramatically reduced
same,level of ectopic tagged survivin,[4],reduced survivin protein level; also recorded: completely eliminated survivin
same,degradation of endogenous survivin,[5],increased degradation
same,IC50 in words,[6],lower IC50 than the parent compound
same,IC50,[7],0.4 to 4.4 µM
same,microtubule structure,[8],severely disrupted
same,mitotic arrest,[8],many cells are arrested in mitotic phase
same,endogenous survivin protein level,[9],effectively suppressed
same,colony formation efficiency,"[10]; PC3, 0.2 (unit uncertain)",approximately 52%
same,colony formation efficiency,"[10]; PC3, 0.5 (unit uncertain)",~12%
same,colony formation efficiency,"[10]; PC3, 1 (unit uncertain)",~8%
same,endogenous survivin protein level,[11],effectively suppressed
same,colony formation efficiency,"[12]; A549, 0.2",approximately 2.5%
same,colony formation efficiency,"[12]; A549, 0.5",~0%
same,IC50 in words,[13],lower IC50 than the parent compound
N#Cc1c(-c2cc(OCc3ccccc3)cc(OCc3ccccc3)c2)cc(-c2cc(Cl)ccc2O)[nH]c1=O [LLP3],interaction between survivin and Ran protein,[14],inhibited
same,IC50,[15],14 to 38 µM
same,effect on survivin dimerization or its expression,[16],no effect
Cc1cccc(Nc2nc3nonc3nc2N/N=C/c2ccc(-c3cccc(C(=O)O)c3)o2)c1C [LQZ-7],survivin mRNA level,[17],no effect
same,effect on 14-3-3σ dimerization,[18],no effect
Cc1cccc(Nc2nc3nonc3nc2N/N=C/c2cc3c(cc2[N+](=O)[O-])OCO3)c1C [LQZ-7D],level of ectopic tagged survivin,[4],no effect
same,IC50 in words,[6],low IC50
same,IC50 in words,[13],low IC50
Cc1cccc(Nc2nc3nonc3nc2N/N=C/c2ccc(-c3ccc(Cl)c([N+](=O)[O-])c3)o2)c1C [LQZ-7A],level of ectopic tagged survivin,[4],no effect
same,IC50 in words,[6],low IC50
same,IC50 in words,[13],low IC50
CC(C)C[C@H](NC(=O)[C@H](Cc1ccccc1)NC(=O)c1cnccn1)B(O)O [bortezomib],effect of proteasome inhibitor on LQZ-7F-induced survivin degradation,[1],able to rescue
COCCn1c2c([n+](Cc3cnccn3)c1C)C(=O)c1ccccc1C2=O [YM155],clinical efficacy,[19],limited or modest at best efficacy

# Reference: patent US10517871B2, “Survivin-targeting anti-tumor agents and uses thereof” (Indiana University Research and Technology Corporation, priority 2015, dated 2019)
